Common to all, as to type: cell-based, human
Assay [1] relates to HBEC. The assay can be described thus: Paclitaxel treatment of HBEC, immunofluorescence microscopy. The protocol:
(§1) HBEC were grown to 70% confluency on 1 well-chambered coverglass (Lab-Tek II, Nunc, #1.5). For all experiments except the localization of LTB4DH and Hs.516830 to the centriole in D51 cells, which required a stringent wash prior to fixation, standard fixation conditions were used. For standard conditions, culture media was removed and the cells were fixed directly in PBS containing 3% formaldehyde for 20 minutes. For stringent conditions, cells were rinsed quickly in PHEM buffer (60 mM Pipes, 25 mM Hepes, 10 mM EGTA, 1 mM Mg-acetate, pH 6.9), lysed for 2 minutes in PHEM containing 0.5% Triton X100, and fixed in PHEM containing 3% formaldehyde for 20 minutes. All steps subsequent to cell fixation were identical. Cells were incubated with PBS containing 50 mM NH4Cl for 10 minutes, permeabilized in PBS containing 0.1% Triton X-100 at RT for 3 minutes, and blocked one hour in block buffer (PBS containing 0.75% BSA [GIBCO]). Primary antisera was diluted in block buffer to a final concentration of 1-10 ug/ml, depending on the antibody, and incubated with cells for 1.5 hours at room temperature. Conjugated secondary antibodies (diluted in block buffer to 2 ug/ml) were incubated for 45 minutes at room temperature. Phalloidin conjugated to rhodamine (Molecular Probes, 1 unit/ml final) was included during secondary antibody incubation where indicated in the figure legend. DNA was stained with 300 nM DAPI (Molecular Probes) in PBS for 5 minutes, and the cells were mounted in Prolong Antifade (Molecular Probes). Wide-field fluorescence microscopy (DeltaVision, Applied Precision) and subsequent deconvolution was used for all images that dealt with fixed cells. A 0.2-micron z-plane was used throughout. Three-dimensional rendering of stacked images was done on Volocity 2.0 software (Improvision).
(§2) Primary cell cultures of human bronchial epithelial cells (HBEC) were purchased commercially (Cambrex, no retinoic acid) from two male donors and grown in BEGM medium (Cambrex) according to specifications. […]

Assay [2] has as its system MCF10A breast epithelial cells. Put plainly: Paclitaxel treatment of MCF10A, immunofluorescence microscopy. Particulars: 1 uM paclitaxel, 9 hours.
The test system of assay [3] is HBEC. Put plainly: Nocodazole treatment and recovery of HBEC, immunofluorescence microscopy. The protocol:
as §1, §2

Here are results for 2 compounds from patent publication US20070298444A1, “Methods and Compositions for Use in Evaluating and Treating Neoplastic Disease Conditions” (priority 2004, published 2007).

With `CC(=O)O[C@H]1C(=O)[C@@]2(C)[C@H]([C@H](OC(=O)c3ccccc3)[C@]3(O)C[C@H](OC(=O)[C@H](O)[C@@H](NC(=O)c4ccccc4)c4ccccc4)C(C)=C1C3(C)C)[C@]1(OC(C)=O)CO[C@@H]1C[C@@H]2O` [paclitaxel], the “formation of ribbon-like structure” value in the assay with HBEC [1] (HBEC treated with paclitaxel versus absence of paclitaxel, antisera to OKL38, LTB4DH, RLA1, TRIM29) is recorded as “promotes the formation of a ribbon-like structure in close proximity to mitotic DNA”. The “increase in the number of mitotic figures” value in the assay on HBEC [1] (HBEC, 1 uM paclitaxel, 9 hours, DAPI stain of fixed cells) was 10 fold. For the same compound, in the assay with HBEC [1] (HBEC, 1 uM paclitaxel, 9 hours, alpha-tubulin immunofluorescence), the “mitotic spindle integrity based on microtubule localization” value was “no indication of an intact mitotic spindle in any cell”. Further, the “localization of ribbon-like structure” value in assay [2] was “localization of a ribbon-like structure in the vicinity of condensed, mitotic DNA”.
For the compound `COC(=O)Nc1nc2ccc(C(=O)c3cccs3)cc2[nH]1` [nocodazole], the “presence of ribbon-like structure” value with HBEC [3] (nocodazole 20 minute exposure) is given as “uncharacteristically absent”. Besides, the “effect on cytoplasmic microtubules” value with HBEC [3] (nocodazole 20 minute exposure, alpha-tubulin antisera) is “sufficient to eliminate cytoplasmic MT”. For the same compound, in the assay on HBEC [3] (nocodazole treatment then 20 minute recovery, phalloidin-rhodamine), the “effect on actin fibers” value was “unaffected”.
